Measured values taken from ChEMBL document CHEMBL1126573, “Non-peptide angiotensin II receptor antagonists. 1. Design, synthesis, and biological activity of N-substituted indoles and dihydroindoles” (J Med Chem, 1993).

Columns and labels:
[1] = molecular target: T1, Type-1 angiotensin II receptor (Oryctolagus cuniculus, UniProt P34976); test: In vitro antagonist activity against angiotensin II receptor type 1 in rabbit aorta using [125I]-Sar, Ile AII.; format: functional, tissue-based
T1 sequence (P34976 whole entry): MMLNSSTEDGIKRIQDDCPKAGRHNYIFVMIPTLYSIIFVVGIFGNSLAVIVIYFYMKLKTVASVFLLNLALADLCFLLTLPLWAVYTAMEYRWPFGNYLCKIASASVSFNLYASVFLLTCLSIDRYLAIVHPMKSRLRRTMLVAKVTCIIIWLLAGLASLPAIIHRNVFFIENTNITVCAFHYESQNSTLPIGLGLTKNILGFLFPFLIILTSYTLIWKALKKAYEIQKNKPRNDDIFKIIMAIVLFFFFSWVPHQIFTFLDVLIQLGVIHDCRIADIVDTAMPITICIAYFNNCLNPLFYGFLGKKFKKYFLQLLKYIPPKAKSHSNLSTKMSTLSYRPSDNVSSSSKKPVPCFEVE

[2] = molecular target: T2, Type-2 angiotensin II receptor (Rattus norvegicus, UniProt P35351); test: In vitro antagonist activity against angiotensin II receptor type 2 in rat midbrain using [125I]-Sar,Ile AII.; format: functional
T2 sequence (P35351 whole entry): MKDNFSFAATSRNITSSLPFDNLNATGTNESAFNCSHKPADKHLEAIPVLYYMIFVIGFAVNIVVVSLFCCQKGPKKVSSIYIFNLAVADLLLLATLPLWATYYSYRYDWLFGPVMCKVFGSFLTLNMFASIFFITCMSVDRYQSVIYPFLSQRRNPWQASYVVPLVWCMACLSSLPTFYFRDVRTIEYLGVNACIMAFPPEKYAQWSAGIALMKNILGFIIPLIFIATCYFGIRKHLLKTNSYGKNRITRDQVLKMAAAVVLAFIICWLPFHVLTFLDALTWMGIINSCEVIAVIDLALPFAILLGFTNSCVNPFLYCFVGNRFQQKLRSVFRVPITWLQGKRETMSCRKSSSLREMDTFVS

CCc1nc2c(C)cc(C)nc2n1Cc1ccc2c(c1)CCN2C(C#N)c1ccccc1C (stereo unspecified) was tested. Which IC50 [1] did it give?
Its IC50 is 1.1 µM.

What about the IC50 [2] of the same compound?
The IC50 was 13 µM.

For CCc1nc2c(C)cc(C)nc2n1Cc1ccc2c(ccn2Cc2ccccc2-c2nn[nH]n2)c1, which IC50 [1] is on record?
Its IC50 is 0.0087 µM.

And the IC50 [2]?
Its IC50 is > 18 µM.

Which IC50 [1] does the source give for CCc1nc2c(C)cc(C)nc2n1Cc1ccc2c(ccn2Cc2ccccc2C#N)c1 here?
Its IC50 is 0.32 µM.

What about the IC50 [2] of the same compound?
The IC50 was > 30 µM.

For CCc1nc2c(C)cc(C)nc2n1Cc1ccc(-c2ccccc2-c2nnn[nH]2)cc1 [L-158809], which IC50 [2] is on record?
The IC50 was > 10 µM.

Which IC50 [2] does the source give for CCc1nc2c(C)cc(C)nc2n1Cc1ccc2c(ccn2Cc2ccccc2NC(=O)OC)c1 here?
The IC50 was > 30 µM.

CCc1nc2c(C)cc(C)nc2n1Cc1ccc2c(c1)CCN2C(=O)c1cc(Cl)c(Cl)cc1C(=O)O was tested. Which IC50 [1] did it give?
The IC50 was 0.17 µM.

And the IC50 [2]?
Its IC50 is 1 µM.

Which IC50 [1] does the source give for CCc1nc2c(C)cc(C)nc2n1Cc1ccc2c(ccn2Cc2ccccc2C(=O)OC)c1 here?
Its IC50 is 0.62 µM.

And the IC50 [2]?
The IC50 was 21 µM.

Which results are given for CCc1nc2c(C)cc(C)nc2n1Cc1ccc2c(ccn2C(=O)c2ccccc2-c2nnn[nH]2)c1?
IC50 [1]: 0.005 µM; IC50 [2]: 0.13 µM

Which IC50 [2] does the source give for CCc1nc2c(C)cc(C)nc2n1Cc1ccc2c(c1)CCN2C(c1ccccc1)c1nnn[nH]1 (stereo unspecified) here?
Its IC50 is > 30 µM.

How did the IC50 [1] turn out when CCc1nc2c(C)cc(C)nc2n1Cc1ccc2c(c1)CCN2C(C(=O)O)c1ccccc1 (stereo unspecified) was run?
Its IC50 is 0.082 µM.

What about the IC50 [2] of the same compound?
Its IC50 is 14 µM.

What does the source list for CCc1nc2c(C)cc(C)nc2n1Cc1ccc2c(ccn2C(=O)c2cc(Cl)c(Cl)cc2C(=O)O)c1?
IC50 [1]: 0.015 µM; IC50 [2]: 1.9 µM

For CCc1nc2c(C)cc(C)nc2n1Cc1ccc2c(ccn2C(=O)c2ccccc2C#N)c1, which IC50 [1] is on record?
Its IC50 is 0.25 µM.

And the IC50 [2]?
The IC50 was > 50 µM.

CCc1nc2c(C)cc(C)nc2n1Cc1ccc2c(ccn2Cc2c(Cl)cccc2C#N)c1 was tested. Which IC50 [1] did it give?
The IC50 was 0.12 µM.

And the IC50 [2]?
Its IC50 is > 30 µM.

CCc1nc2c(C)cc(C)nc2n1Cc1ccc2c(c1)CCN2C(C#N)c1cccc(C)c1 (stereo unspecified) was tested. Which IC50 [1] did it give?
The IC50 was 1.6 µM.

And the IC50 [2]?
The IC50 was 10.5 µM.

With CCc1nc2c(C)cc(C)nc2n1Cc1ccc2c(ccn2C(=O)c2ccccc2NC(=O)O)c1 as the compound, how does the IC50 [1] read?
Its IC50 is 0.092 µM.

What about the IC50 [2] of the same compound?
Its IC50 is 17 µM.

How did the IC50 [1] turn out when CCc1nc2c(C)cc(C)nc2n1Cc1ccc2c(c1)CCN2C(C(=O)OC)c1ccccc1 (stereo unspecified) was run?
Its IC50 is 0.17 µM.

And the IC50 [2]?
The IC50 was 16 µM.

Which results are given for CCc1nc2c(C)cc(C)nc2n1Cc1ccc2c(c1)CCN2C(=O)c1ccccc1C(=O)O?
IC50 [1]: 0.048 µM; IC50 [2]: 10 µM

How did the IC50 [1] turn out when CCc1nc2c(C)cc(C)nc2n1Cc1ccc2c(c1)CCN2C(=O)c1ccccc1-c1nnn[nH]1 was run?
Its IC50 is 0.78 µM.

What about the IC50 [2] of the same compound?
The IC50 was > 10 µM.

How did the IC50 [1] turn out when CCc1nc2c(C)cc(C)nc2n1Cc1ccc2c(ccn2Cc2c(Cl)cccc2-c2nnn[nH]2)c1 was run?
Its IC50 is 0.001 µM.

What about the IC50 [2] of the same compound?
Its IC50 is 12 µM.

For CCc1nc2c(C)cc(C)nc2n1Cc1ccc2c(ccn2C(=O)c2ccccc2)c1, which IC50 [1] is on record?
The IC50 was 0.24 µM.

What about the IC50 [2] of the same compound?
Its IC50 is 8.9 µM.

With CCc1nc2c(C)cc(C)nc2n1Cc1ccc2c(c1)CCN2C(=O)c1c(Cl)ccc(Cl)c1C(=O)O as the compound, how does the IC50 [1] read?
The IC50 was 0.018 µM.

What about the IC50 [2] of the same compound?
Its IC50 is 6.5 µM.

CCc1nc2c(C)cc(C)nc2n1Cc1ccc2c(c1)CCN2C(C#N)c1ccc(C)cc1 (stereo unspecified) was tested. Which IC50 [2] did it give?
The IC50 was 14 µM.

CCc1nc2c(C)cc(C)nc2n1Cc1ccc2c(ccn2Cc2ccccc2C(=O)O)c1 was tested. Which IC50 [2] did it give?
Its IC50 is > 30 µM.

Which IC50 [1] does the source give for CCc1nc2c(C)cc(C)nc2n1Cc1ccc2c(ccn2C(=O)c2c(Cl)ccc(Cl)c2C(=O)O)c1 here?
The IC50 was 0.0008 µM.

What about the IC50 [2] of the same compound?
The IC50 was 2.7 µM.

Which results are given for CCc1nc2c(C)cc(C)nc2n1Cc1ccc2c(ccn2Cc2cccc([N+](=O)[O-])c2C(=O)O)c1?
IC50 [1]: 0.16 µM; IC50 [2]: 14 µM

For CCc1nc2c(C)cc(C)nc2n1Cc1ccc2c(c1)CCN2C(=O)c1ccccc1C#N, which IC50 [1] is on record?
The IC50 was 0.67 µM.

What about the IC50 [2] of the same compound?
The IC50 was 25 µM.

Which results are given for CCc1nc2c(C)cc(C)nc2n1Cc1ccc2c(ccn2C(=O)c2ccccc2C(=O)O)c1?
IC50 [1]: 0.02 µM; IC50 [2]: 6.6 µM

What does the source list for CCc1nc2c(C)cc(C)nc2n1Cc1ccc2c(c1)CCN2C(C#N)c1ccccc1 (stereo unspecified)?
IC50 [1]: 0.35 µM; IC50 [2]: 11.5 µM
